Values of other authors, collected in patent publication US20260031189A1, “METHOD AND SYSTEMS FOR PREDICTION OF HLA CLASS II-SPECIFIC EPITOPES AND CHARACTERIZATION OF CD4+ T CELLS” (BioNTech US Inc., priority 2022, published 2026).

Settings: with NYESO-1 peptide vaccine and Montanide; ovarian carcinoma; cited from earlier work

## poly-ICLC
  patients with induction of CD4+ and CD8+ T cell and antibody responses to the peptide: > 90%
